The values that follow come from patent US20100173835A1, “Peptides for Treatment of Obesity” (Novo Nordisk A/S, priority 2008, published 2010).

The subject of one data set is ad libitum fed rat model. The experiment in a line: Assay (I) efficacy testing on appetite, ad libitum fed rat model. The data set is classed as in vivo. As to the method: Assay (I)—Experimental protocol for efficacy testing on appetite with MC4 analogues, using an ad libitum fed rat model. TAC:SPRD @mol rats or Wistar rats from M&B Breeding and Research Centre A/S, Denmark are used for the experiments. The rats have a body weight 200-250 g at the start of experiment. The rats arrive at least 10-14 days before start of experiment with a body weight of 180-200 g. Each dose of compound is tested in a group of 8 rats. […] When the animals arrive they are housed individually in a reversed light/dark phase (lights off 7:30 am, lights on 7:30 pm), meaning that lights are off during daytime and on during nighttime. […] During this period the animals are handled at least 3 times. The experiment is conducted in the rats' home cages. Immediately before dosing the rats are randomised to the various treatment groups (n 8) by body weight. They are dosed according to body weight at between 7:00 am and 7:45 am, with a 1-3 mg/kg solution administered intraperitoneally (ip), orally (po) or subcutaneously (sc). The time of dosing is recorded for each group. After dosing, the rats are returned to their home cages, where they then have access to food and water. […] At the end of the experimental session, the animals are euthanised. The individual data are recorded in Microsoft excel sheets. Outliers are excluded after applying the Grubbs statistical evaluation test for outliers, and the result is presented graphically using the GraphPad Prism program.

A further data set addresses T1, MC1 receptor (Homo sapiens, UniProt Q01726).
T1 construct: expressed in transfected cells
Put plainly: Assay (IV) Melanocortin Receptor 1 (MC1) binding assay. The note with it: 125NDP-α-MSH binding, BHK cell membranes; read-out: Assay (IV) MC1 Ki. The gist of the method:
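Competition binding used BHK cell membranes stably expressing MC1 (25 μg/ml) with 22 pM final ^125NDP-α-MSH in 25 mM HEPES pH 7.4, CaCl2, MgSO4, EDTA, 0.1% HSA (or ovalbumin), 0.005% Tween 20. After 90 min at 30° C., bound radioligand was filtered and counted, with binding curves fitted by non-linear regression.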

Another data set concerns the target T2, human MC4 receptor (Homo sapiens, UniProt P32245).
T2 construct: expressed in transfected cells
Put plainly: Assay (V) Melanocortin Receptor 4 (MC4) binding assay. The note with it: 125NDP-α-MSH binding, BHK cell membranes; read-out: Assay (V) MC4 [Ki]. A digest of the protocol: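 BHK membranes stably expressing human MC4 receptor were incubated with ^125NDP-α-MSH (≈79 pM final) and compound for 2 h at 25 °C, pH 7.0 HEPES buffer with HSA or ovalbumin. Filter-bound radioactivity was gamma counted. Binding curves were fitted by non-linear regression.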

Data set [1] can be described thus: Solubility data of compounds in water over the pH range. It counts as physicochemical.

≈ marks a conversion by molar mass, not a printed value. Where two headings read alike, the source gives them in different places. *1 amine or outer side, *2 acyl side, *3 side chain or, on linkers, in order; H or OH if unused. Where a SMILES comes first, the peptide text is derived from it. Bridges are numbered along the chain shown (N, C = ends). Side-chain parts run from the residue outwards. [ ]: non-standard residue; d: D form. The star is where a group is joined. Palmitoyl(16-(5-tetrazolyl)) = O=C(CCCCCCCCCCCCCCCc1nnn[nH]1)*; C18 diacid = O=C(O)CCCCCCCCCCCCCCCCC(=O)*; C16 diacid = O=C(O)CCCCCCCCCCCCCCC(=O)*; γGlu = O=C(O)[C@H](CCC(=O)[*:2])N[*:1]; Hyp = O=C(O)[C@@H]1C[C@@H](O)CN1; NTA = O=C(O)CN(CC(=O)O)CC(=O)*; Nle = CCCC[C@H](N)C(=O)O; Dap = NC[C@H](N)C(=O)O; AEEA = NCCOCCOCC(=O)O Bounds are passed on as bounds.

T2 sequence (P32245 whole entry): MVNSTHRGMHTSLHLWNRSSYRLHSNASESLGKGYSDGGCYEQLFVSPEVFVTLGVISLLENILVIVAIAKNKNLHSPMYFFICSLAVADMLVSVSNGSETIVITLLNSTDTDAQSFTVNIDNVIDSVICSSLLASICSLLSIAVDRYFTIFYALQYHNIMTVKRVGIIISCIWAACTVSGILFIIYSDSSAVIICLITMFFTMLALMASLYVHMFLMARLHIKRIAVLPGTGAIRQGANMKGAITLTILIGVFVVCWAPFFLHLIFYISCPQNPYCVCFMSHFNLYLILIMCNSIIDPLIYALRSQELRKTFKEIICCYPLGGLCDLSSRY
T1 sequence (Q01726 whole entry): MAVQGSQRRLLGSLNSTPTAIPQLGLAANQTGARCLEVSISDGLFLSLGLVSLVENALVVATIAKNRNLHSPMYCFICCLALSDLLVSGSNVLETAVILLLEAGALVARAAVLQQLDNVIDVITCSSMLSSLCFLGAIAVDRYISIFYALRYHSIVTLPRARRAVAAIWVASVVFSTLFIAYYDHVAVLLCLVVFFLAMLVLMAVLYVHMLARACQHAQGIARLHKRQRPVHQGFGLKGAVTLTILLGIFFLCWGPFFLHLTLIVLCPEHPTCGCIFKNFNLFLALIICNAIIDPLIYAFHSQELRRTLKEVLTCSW

The term Ki denotes the dissociation constant of the complex between target and ligand, obtained from inhibition or displacement. `CCCC[C@H](NC(=O)[C@H](CCCCNC(=O)CN(CC(=O)O)CC(=O)O)NC(=O)[C@H](Cc1c[nH]cn1)NC(=O)[C@H](CCC(N)=O)NC(=O)[C@H](CO)NC(=O)CNC(=O)COCCOCCNC(=O)CCCCCCCCCCCCCCCc1nnn[nH]1)C(=O)N[C@H]1CCC(=O)NCCCC[C@@H](C(N)=O)NC(=O)[C@H](Cc2c[nH]c3ccccc23)NC(=O)[C@H](CCCNC(=N)N)NC(=O)[C@@H](Cc2ccccc2)NC(=O)[C@@H]2C[C@@H](O)CN2C1=O` [Example 1, (2-{2-[16-(Tetrazol-5-yl)hexadecanoylamino]ethoxy}ethoxy)acetyl-Gly-Ser-Gln-His-Lys(BCMA)-Nle-c[Glu-Hyp-D-Phe-Arg-Trp-Lys]-NH2] ({Palmitoyl(16-(5-tetrazolyl))-AEEA}-GSQHK(NTA)[Nle]E[Hyp][dF]RWK-NH2; lactam 7-12): in the data set on ad libitum fed rat model (dosing 3 mg/kg), the “Food consumption (% of vehicle) 24 h” value is on record as 65 % of vehicle and the “Food consumption (% of vehicle) 48 h” value is recorded as 72 % of vehicle. In addition, the Ki on MC1 receptor is over 10 µM. Further, on human MC4 receptor, the Ki is 0.0004 µM.
By solubility is commonly meant how much of the substance goes into solution per volume. As for `CCCC[C@H](NC(=O)[C@H](CNC(=O)[C@H](Cc1c[nH]cn1)NC(=O)[C@H](CCC(N)=O)NC(=O)[C@H](CO)NC(=O)CNC(=O)COCCOCCNC(=O)CCCCCCCCCCCCCCCc1nnn[nH]1)NC(=O)CN(CC(=O)O)CC(=O)O)C(=O)N[C@H]1CCC(=O)NCCCC[C@@H](C(N)=O)NC(=O)[C@H](Cc2c[nH]c3ccccc23)NC(=O)[C@H](CCCNC(=N)N)NC(=O)[C@@H](Cc2ccccc2)NC(=O)[C@@H]2C[C@@H](O)CN2C1=O` [Example 2, (2-{2-[16-(Tetrazol-5-yl)hexadecanoylamino]ethoxy}ethoxy)acetyl-Gly-Ser-Gln-His-β-Dap(BCMA)-Nle-c[Glu-Hyp-D-Phe-Arg-Trp-Lys]-NH2] ({NTA}-[Dap]([His-Gln-Ser-Gly-AEEA-Palmitoyl(16-(5-tetrazolyl))])[Nle]E[Hyp][dF]RWK-NH2; lactam 3-8), the “Food consumption (% of vehicle) 24 h” value in the data set on ad libitum fed rat model (dosing 1 mg/kg) was 60 % of vehicle. The “Food consumption (% of vehicle) 48 h” value in the data set on ad libitum fed rat model (dosing 1 mg/kg) is given as 71 % of vehicle. Further, the inhibitory constant (Ki) at MC1 receptor stood at 5.57 µM; at human MC4 receptor, 0.00343 µM. Also, the solubility at 3 days in data set [1] (pH 3.02, pH 3.02, read-out: Conc (solubility in water)) worked out at 320 µM (≈ 670 µg/mL); in data set [1] (pH 3.84, pH 3.84, read-out: Conc (solubility in water)), 421 µM (≈ 881 µg/mL); in data set [1] (pH 4.3, pH 4.3, read-out: Conc (solubility in water)) it was 216 µM (≈ 452 µg/mL); in data set [1] (pH 4.64, pH 4.64, read-out: Conc (solubility in water)) it was 49 µM (≈ 103 µg/mL); in data set [1] (pH 5.22, pH 5.22, read-out: Conc (solubility in water)), 13 µM (≈ 27.2 µg/mL); in data set [1] (pH 6.55, pH 6.55, read-out: Conc (solubility in water)), 14 µM (≈ 29.3 µg/mL). The solubility at 3 days worked out at 122 µM (≈ 255 µg/mL) in data set [1] (pH 7.2, pH 7.2, read-out: Conc (solubility in water)); 251 µM (≈ 525 µg/mL) in data set [1] (pH 7.36, pH 7.36, read-out: Conc (solubility in water)); 320 µM (≈ 670 µg/mL) in data set [1] (pH 7.53, pH 7.53, read-out: Conc (solubility in water)); 77 µM (≈ 161 µg/mL) in data set [1] (pH 7.81, pH 7.81, read-out: Conc (solubility in water)).
As to `CCCC[C@H](NC(=O)[C@H](CCCCNC(=O)CN(CC(=O)O)CC(=O)O)NC(=O)[C@H](CO)NC(=O)[C@H](CCC(N)=O)NC(=O)[C@H](CO)NC(=O)CNC(=O)COCCOCCNC(=O)CCCCCCCCCCCCCCCc1nnn[nH]1)C(=O)N[C@H]1CCC(=O)NCCCC[C@@H](C(N)=O)NC(=O)[C@H](Cc2c[nH]c3ccccc23)NC(=O)[C@H](CCCNC(=N)N)NC(=O)[C@@H](Cc2ccccc2)NC(=O)[C@@H]2C[C@@H](O)CN2C1=O` [Example 15, (2-{2-[16-(Tetrazol-5-yl)hexadecanoylamino]ethoxy}ethoxy)acetyl-Gly-Ser-Gln-Ser-Lys(BCMA)-Nle-c[Glu-Hyp-D-Phe-Arg-Trp-Lys]-NH2] ({Palmitoyl(16-(5-tetrazolyl))-AEEA}-GSQSK(NTA)[Nle]E[Hyp][dF]RWK-NH2; lactam 7-12), in the data set with ad libitum fed rat model (dosing 1 mg/kg), the “Food consumption (% of vehicle) 24 h” value is on record as 74 % of vehicle and the “Food consumption (% of vehicle) 48 h” value is 85 % of vehicle. For the same compound, on MC1 receptor, the inhibition constant Ki is over 10 µM. Also, the Ki on human MC4 receptor was 0.00315 µM.
On to `CCCC[C@H](NC(=O)[C@H](CNC(=O)CN(CC(=O)O)CC(=O)O)NC(=O)[C@H](Cc1c[nH]cn1)NC(=O)[C@H](CCC(N)=O)NC(=O)[C@H](CO)NC(=O)CNC(=O)COCCOCCNC(=O)COCCOCCNC(=O)CC[C@H](NC(=O)CCCCCCCCCCCCCCCCC(=O)O)C(=O)O)C(=O)N[C@H]1CCC(=O)NCCCC[C@@H](C(N)=O)NC(=O)[C@H](Cc2c[nH]c3ccccc23)NC(=O)[C@H](CCCNC(=N)N)NC(=O)[C@@H](Cc2ccccc2)NC(=O)[C@@H]2C[C@@H](O)CN2C1=O` [Example 18, (2-{2-[2-(2-{2-[(S)-4-Carboxy-4-(17-carboxyheptadecanoylamino)butanoylamino]ethoxy}ethoxy)acetylamino]ethoxy}ethoxy)acetyl-Gly-Ser-Gln-His-Dap(BCMA)-Nle-c[Glu-Hyp-D-Phe-Arg-Trp-Lys]-NH2] ({C18 diacid-γGlu-AEEA-AEEA}-GSQH[Dap](NTA)[Nle]E[Hyp][dF]RWK-NH2; lactam 7-12), for which the Ki on MC1 receptor is over 10 µM; at human MC4 receptor, 0.00535 µM. Moreover, the solubility at 3 days came to 391 µM (≈ 921 µg/mL) in data set [1] (pH 3.7); 25 µM (≈ 58.9 µg/mL) in data set [1] (pH 5.2); 78 µM (≈ 184 µg/mL) in data set [1] (pH 5.96); 249 µM (≈ 587 µg/mL) in data set [1] (pH 6.56); 342 µM (≈ 806 µg/mL) in data set [1] (pH 6.73); 382 µM (≈ 900 µg/mL) in data set [1] (pH 6.95). In addition, the solubility at 3 days came to 485 µM (≈ 1140 µg/mL) in data set [1] (pH 7.07) and 498 µM (≈ 1170 µg/mL) in data set [1] (pH 7.51).
Regarding `CCCC[C@H](NC(=O)[C@H](CCCCNC(=O)CN(CC(=O)O)CC(=O)O)NC(=O)[C@H](CO)NC(=O)[C@H](CCC(N)=O)NC(=O)[C@H](CO)NC(=O)CNC(=O)COCCOCCNC(=O)CCCCCCCCCCCCCCC(=O)O)C(=O)N[C@H]1CCC(=O)NCCCC[C@@H](C(N)=O)NC(=O)[C@H](Cc2c[nH]c3ccccc23)NC(=O)[C@H](CCCNC(=N)N)NC(=O)[C@@H](Cc2ccccc2)NC(=O)[C@@H]2C[C@@H](O)CN2C1=O` [Example 21, {2-[2-(15-Carboxypentadecanoylamino)ethoxy]ethoxy}acetyl-Gly-Ser-Gln-Ser-Lys(BCMA)-Nle-c[Glu-Hyp-D-Phe-Arg-Trp-Lys]-NH2] ({C16 diacid-AEEA}-GSQSK(NTA)[Nle]E[Hyp][dF]RWK-NH2; lactam 7-12), the Ki on MC1 receptor was over 10 µM; on human MC4 receptor, 0.0147 µM. Besides, the solubility at 3 days in data set [1] (pH 4.04) worked out at 26 µM (≈ 53.2 µg/mL); in data set [1] (pH 4.34), 32 µM (≈ 65.5 µg/mL); in data set [1] (pH 4.74), 40 µM (≈ 81.9 µg/mL); in data set [1] (pH 5.21), 58 µM (≈ 119 µg/mL); in data set [1] (pH 5.67) it was 103 µM (≈ 211 µg/mL); in data set [1] (pH 6.26), 108 µM (≈ 221 µg/mL). For the same compound, the solubility at 3 days came to 106 µM (≈ 217 µg/mL) in data set [1] (pH 6.29), 117 µM (≈ 239 µg/mL) in data set [1] (pH 6.87), 116 µM (≈ 237 µg/mL) in data set [1] (pH 7.6) and 107 µM (≈ 219 µg/mL) in data set [1] (pH 7.61).
